Experimental data from patent publication US11040981B2, “Pyrrolotriazine compounds and methods of inhibiting TAM kinases” (Syros Pharmaceuticals, Inc., priority 2017, dated 2021).

Experiments:
AXL = molecular target: T1, AXL (Homo sapiens, UniProt P30530); assay: TR-FRET kinase activity assay, AXL; assay type: biochemical; conditions: ATP at Km, 60 minutes
T1 sequence (P30530 26-894): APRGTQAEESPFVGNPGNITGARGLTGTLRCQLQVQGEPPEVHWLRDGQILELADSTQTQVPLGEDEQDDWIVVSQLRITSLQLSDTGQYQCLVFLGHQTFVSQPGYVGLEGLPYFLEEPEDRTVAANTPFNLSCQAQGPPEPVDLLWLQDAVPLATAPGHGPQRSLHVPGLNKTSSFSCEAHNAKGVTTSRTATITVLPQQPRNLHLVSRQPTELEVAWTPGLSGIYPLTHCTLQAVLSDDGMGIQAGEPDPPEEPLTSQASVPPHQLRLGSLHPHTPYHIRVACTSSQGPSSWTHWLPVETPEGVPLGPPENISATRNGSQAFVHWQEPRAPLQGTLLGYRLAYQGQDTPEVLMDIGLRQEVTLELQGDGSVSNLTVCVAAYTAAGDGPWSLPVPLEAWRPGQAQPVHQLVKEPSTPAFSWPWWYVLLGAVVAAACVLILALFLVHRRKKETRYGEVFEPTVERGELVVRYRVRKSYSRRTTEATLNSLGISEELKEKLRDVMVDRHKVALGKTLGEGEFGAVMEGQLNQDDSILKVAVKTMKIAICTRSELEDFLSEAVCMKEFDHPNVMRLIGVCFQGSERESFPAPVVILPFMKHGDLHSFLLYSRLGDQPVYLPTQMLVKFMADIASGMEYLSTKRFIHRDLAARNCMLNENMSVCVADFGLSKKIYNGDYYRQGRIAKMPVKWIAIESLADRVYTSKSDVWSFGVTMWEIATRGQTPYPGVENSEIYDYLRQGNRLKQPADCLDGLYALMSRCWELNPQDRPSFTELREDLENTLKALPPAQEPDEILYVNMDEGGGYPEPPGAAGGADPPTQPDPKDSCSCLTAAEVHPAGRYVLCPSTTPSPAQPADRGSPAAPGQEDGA
Outline: (§1)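 Enzyme, fluorescent peptide substrate and compound were mixed, and the reaction was started with ATP at each kinase's Km, in 50 mM HEPES pH 7.5, 10 mM MgCl2, 1 mM EGTA, 0.01% Brij 35, 1 mM DTT at RT. After 60 minutes EDTA quench, Eu-labelled phospho-specific antibody was added for 30 minutes, and IC50 was derived from TR-FRET signal loss.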

MERTK = molecular target: T2, MERTK (Homo sapiens, UniProt Q12866); assay: TR-FRET kinase activity assay, MERTK; assay type: biochemical; conditions: for IC50: TR-FRET activity assay, ATP at Km, 60 minutes, read-out: Mer IC50
T2 sequence (Q12866 21-999): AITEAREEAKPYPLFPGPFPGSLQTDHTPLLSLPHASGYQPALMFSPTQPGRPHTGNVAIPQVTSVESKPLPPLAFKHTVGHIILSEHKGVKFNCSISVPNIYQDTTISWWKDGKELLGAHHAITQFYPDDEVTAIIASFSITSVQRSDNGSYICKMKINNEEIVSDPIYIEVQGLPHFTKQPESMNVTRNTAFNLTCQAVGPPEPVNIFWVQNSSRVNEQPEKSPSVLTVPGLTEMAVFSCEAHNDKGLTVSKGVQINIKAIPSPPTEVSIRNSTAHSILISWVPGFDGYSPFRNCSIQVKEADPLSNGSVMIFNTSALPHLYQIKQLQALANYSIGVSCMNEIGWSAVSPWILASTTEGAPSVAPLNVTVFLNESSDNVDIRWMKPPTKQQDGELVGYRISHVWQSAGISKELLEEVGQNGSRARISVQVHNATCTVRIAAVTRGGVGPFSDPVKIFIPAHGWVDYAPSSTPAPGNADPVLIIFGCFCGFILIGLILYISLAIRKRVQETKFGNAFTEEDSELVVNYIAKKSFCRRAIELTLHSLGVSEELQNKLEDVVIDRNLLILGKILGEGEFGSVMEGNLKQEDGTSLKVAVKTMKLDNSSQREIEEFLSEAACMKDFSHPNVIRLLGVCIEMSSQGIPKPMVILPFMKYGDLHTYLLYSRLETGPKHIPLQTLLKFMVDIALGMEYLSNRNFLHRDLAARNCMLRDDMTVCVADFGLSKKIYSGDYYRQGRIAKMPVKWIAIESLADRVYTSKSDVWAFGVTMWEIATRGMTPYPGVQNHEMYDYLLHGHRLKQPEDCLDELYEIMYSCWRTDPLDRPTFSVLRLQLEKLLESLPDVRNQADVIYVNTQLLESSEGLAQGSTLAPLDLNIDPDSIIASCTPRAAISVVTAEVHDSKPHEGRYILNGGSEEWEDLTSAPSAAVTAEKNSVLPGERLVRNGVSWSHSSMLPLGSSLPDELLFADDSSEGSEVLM
Outline: as §1

[1] = ratio calculated as FLT3 IC50/Mer IC50
[2] = ratio of Mer to FLT3: FLT3 IC50/Mer IC50

Compound | IC50 (AXL) [nM] | IC50 (MERTK) [nM] | FLT3/Mer ratio (FLT3 IC50/Mer IC50) (MERTK; [1]) | FLT3/Mer ratio (FLT3 IC50/Mer IC50) (MERTK; [2])
COC[C@H](C)Nc1ncc2c(-c3cnn(C4COC4)c3)cc(-c3ccc(OC)cc3)n2n1 [Compound 502] | 100 to 1000 | ≤ 100 | ++ (“++” represents a ratio of between 10 and 100) | –
CCC1(Nc2ncc3c(-c4ccc(CN5CCN(C)CC5)cc4)cc([C@H]4CC[C@H](O)CC4)n3n2)CCC1 [Compound 126] | 100 to 1000 | ≤ 100 | – | ++ (“++” represents a ratio of between 10 and 100)
COC[C@H](C)Nc1ncc2c(-c3cnn(C(C)(C)C(=O)N4Cc5nc(C)sc5C4)c3)cc([C@H]3CC[C@H](O)CC3)n2n1 [Compound 495] | ≤ 100 | ≤ 100 | +++ (“+++” represents a ratio of >100) | –
CC[C@H](C)Nc1ncc2c(C3=CCNCC3)cc([C@H]3CC[C@H](O)CC3)n2n1 [Compound 130] | ≤ 100 | ≤ 100 | – | +++ (“+++” represents a ratio of >100)
CC(CC1COC1)Nc1ncc2c(-c3cnn(C4COC4)c3)cc([C@H]3CC[C@H](O)CC3)n2n1 (mixture of isomers) [Compound 447] | 1000 to 10000 | 1000 to 10000 | + (“+” represents a ratio of >2.0 and <10) | –
COC[C@H](C)Nc1ncc2c(C3=C[C@@H]4CC[C@H](C3)N4CC(F)(F)F)cc([C@H]3CC[C@H](O)CC3)n2n1 [Compound 485] | ≤ 100 | ≤ 100 | +++ (“+++” represents a ratio of >100) | –
COC[C@H](C)Nc1ncc2c(-c3cnn(C4COC4)c3)cc([C@H]3CC[C@](C)(O)CC3)n2n1 (single isomer, unassigned) [Compound 452] | ≤ 100 | ≤ 100 | +++ (“+++” represents a ratio of >100) | –
COC[C@H](C)Nc1ncc2c(CC#N)cc([C@H]3CC[C@H](O)CC3)n2n1 [Compound 497] | 100 to 1000 | ≤ 100 | +++ (“+++” represents a ratio of >100) | –
COC[C@H](C)Nc1ncc2c(C#N)cc([C@H]3CC[C@H](O)CC3)n2n1 [Compound 481] | 1000 to 10000 | ≤ 100 | +++ (“+++” represents a ratio of >100) | –
COC[C@H](C)Nc1ncc2c(C3=C[C@@H]4CC[C@H](C3)N4C)cc([C@H]3CC[C@H](O)CC3)n2n1 [Compound 465] | ≤ 100 | ≤ 100 | +++ (“+++” represents a ratio of >100) | –
COC[C@H](C)Nc1ncc2c(-c3cnn(C4COC4)c3)cc(C3CCOCC3)n2n1 [Compound 503] | 100 to 1000 | ≤ 100 | +++ (“+++” represents a ratio of >100) | –

More lines, main results first:

IC50 (AXL) [nM] | IC50 (MERTK) [nM] | FLT3/Mer ratio (FLT3 IC50/Mer IC50) (MERTK; [1]) | Compound | FLT3/Mer ratio (FLT3 IC50/Mer IC50) (MERTK; [2])
≤ 100 | ≤ 100 | +++ (“+++” represents a ratio of >100) | COC[C@H](C)Nc1ncc2c(-c3cnn(C(C)(C)C(=O)N4CCC(C)(C#N)CC4)c3)cc([C@H]3CC[C@H](O)CC3)n2n1 [Compound 451] | –
≤ 100 | ≤ 100 | +++ (“+++” represents a ratio of >100) | COC[C@H](C)Nc1ncc2c(-c3cnn(C[C@@H]4CCO4)c3)cc([C@H]3CC[C@H](O)CC3)n2n1 [Compound 478] | –
≤ 100 | ≤ 100 | +++ (“+++” represents a ratio of >100) | COC[C@H](C)Nc1ncc2c(-c3cnn(CC(C)(C)N4CCOCC4)c3)cc([C@H]3CC[C@H](O)CC3)n2n1 [Compound 507] | –
≤ 100 | ≤ 100 | +++ (“+++” represents a ratio of >100) | COC[C@H](C)Nc1ncc2c(-c3ccnc(N4CCN(S(=O)(=O)C5CC5)CC4)c3)cc([C@H]3CC[C@H](O)CC3)n2n1 [Compound 491] | –
≤ 100 | ≤ 100 | +++ (“+++” represents a ratio of >100) | COC[C@H](C)Nc1ncc2c(-c3cccc(N4C[C@H]5COC[C@H]5C4)c3)cc([C@H]3CC[C@H](O)CC3)n2n1 [Compound 464] | –
≤ 100 | ≤ 100 | – | COC[C@H](C)Nc1ncc2c(-c3ccc(CC(=O)O)cc3)cc([C@H]3CC[C@H](O)CC3)n2n1 [Compound 133] | +++ (“+++” represents a ratio of >100)
≤ 100 | ≤ 100 | +++ (“+++” represents a ratio of >100) | COC[C@H](C)Nc1ncc2c(-c3cnn(C[C@@H]4CCO4)c3)cc([C@H]3CC[C@H](O)CC3)n2n1 [Compound 474] | –
≤ 100 | ≤ 100 | +++ (“+++” represents a ratio of >100) | COC[C@H](C)Nc1ncc2c(-c3ccnc(N4CCOC5(COC5)C4)c3)cc([C@H]3CC[C@H](O)CC3)n2n1 [Compound 480] | –
≤ 100 | ≤ 100 | +++ (“+++” represents a ratio of >100) | COC[C@H](C)Nc1ncc2c(-c3ccnc(N4CCOCC4=O)c3)cc([C@H]3CC[C@H](O)CC3)n2n1 [Compound 423] | –
≤ 100 | ≤ 100 | +++ (“+++” represents a ratio of >100) | COC[C@H](C)Nc1ncc2c(-c3ccnc(N4CCC5(CCO5)CC4)c3)cc([C@H]3CC[C@H](O)CC3)n2n1 [Compound 430] | –
≤ 100 | ≤ 100 | +++ (“+++” represents a ratio of >100) | COC[C@H](C)Nc1ncc2c(-c3ccnc(N4CCN(C(=O)C5COC5)CC4)c3)cc([C@H]3CC[C@H](O)CC3)n2n1 [Compound 500] | –
≤ 100 | ≤ 100 | +++ (“+++” represents a ratio of >100) | COC[C@H](C)Nc1ncc2c(-c3ccnc(N4CCC5(COC5)C4)c3)cc([C@H]3CC[C@H](O)CC3)n2n1 [Compound 493] | –
≤ 100 | ≤ 100 | +++ (“+++” represents a ratio of >100) | COC[C@H](C)Nc1ncc2c(-c3ccnc(Oc4cccnc4)c3)cc([C@H]3CC[C@H](O)CC3)n2n1 [Compound 490] | –
≤ 100 | ≤ 100 | +++ (“+++” represents a ratio of >100) | CNS(=O)(=O)c1ccc(-c2cc([C@H]3CC[C@H](O)CC3)n3nc(N[C@@H](C)COC(F)F)ncc23)cn1 [Compound 424] | –
≤ 100 | ≤ 100 | +++ (“+++” represents a ratio of >100) | COC[C@H](C)Nc1ncc2c(-c3ccnc(N4CCc5nc(C)sc5C4)c3)cc([C@H]3CC[C@H](O)CC3)n2n1 [Compound 509] | –
≤ 100 | ≤ 100 | +++ (“+++” represents a ratio of >100) | COC[C@H](C)Nc1ncc2c(-c3cnn(C(C)(C)C(=O)N4CCN(C)CC4)c3)cc([C@H]3CC[C@H](O)CC3)n2n1 [Compound 466] | –
≤ 100 | ≤ 100 | +++ (“+++” represents a ratio of >100) | COC[C@H](C)Nc1ncc2c(-c3ccnc(F)c3)cc([C@H]3CC[C@H](O)CC3)n2n1 [Compound 505] | –
